In general, EC50 refers to the concentration giving half of the maximal effect.

Consider 3 molecules from patent EP4596574A1, “GLP-1/GCG/GIP TRIPLE-RECEPTOR AGONIST AND USE THEREOF” (Sunshine Lake Pharma Co., Ltd., priority 2022, dated 2024).

What all share (assay type): cell-based
In one assay the target is T1, GIPR (Homo sapiens, UniProt P48546).
T1 construct: expressed in transfected cells; host or cells: HEK293 (HEK293-GIPR)
T1 sequence (P48546 22-466): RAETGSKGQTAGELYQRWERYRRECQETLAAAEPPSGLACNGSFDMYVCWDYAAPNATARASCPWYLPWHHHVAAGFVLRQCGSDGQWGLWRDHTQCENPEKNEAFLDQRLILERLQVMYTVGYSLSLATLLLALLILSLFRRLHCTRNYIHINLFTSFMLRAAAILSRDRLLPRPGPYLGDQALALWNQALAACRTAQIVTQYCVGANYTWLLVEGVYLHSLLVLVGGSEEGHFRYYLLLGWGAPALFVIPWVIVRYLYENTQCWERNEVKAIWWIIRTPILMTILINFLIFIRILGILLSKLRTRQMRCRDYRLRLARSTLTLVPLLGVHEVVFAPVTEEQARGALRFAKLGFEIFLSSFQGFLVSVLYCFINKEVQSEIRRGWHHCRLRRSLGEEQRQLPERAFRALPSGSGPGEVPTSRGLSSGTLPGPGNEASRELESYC
In words: In vitro cell activity, cAMP production in HEK293 cells expressing GIPR. The settings on record: HEK293-GIPR cells, cAMP; read-out: GIPR (EC50). Summed up: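 cAMP accumulation is quantified by homogeneous TR-FRET (cAMP-d2 plus anti-cAMP cryptate) in GIPR-expressing HEK293 cells seeded from a 4×10^5 cells/mL suspension and treated with compound. The signal ratio is plotted against concentration and fitted to a four-parameter curve to give EC50.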
On the technique in general: cAMP levels reflect the balance of adenylyl cyclase and phosphodiesterase activity.

The target in a further assay is T2, GLP-1R (Homo sapiens, UniProt P43220).
T2 construct: expressed in transfected cells; host or cells: HEK293 (HEK293-GLP-1R)
T2 sequence (P43220 24-463, species assumed): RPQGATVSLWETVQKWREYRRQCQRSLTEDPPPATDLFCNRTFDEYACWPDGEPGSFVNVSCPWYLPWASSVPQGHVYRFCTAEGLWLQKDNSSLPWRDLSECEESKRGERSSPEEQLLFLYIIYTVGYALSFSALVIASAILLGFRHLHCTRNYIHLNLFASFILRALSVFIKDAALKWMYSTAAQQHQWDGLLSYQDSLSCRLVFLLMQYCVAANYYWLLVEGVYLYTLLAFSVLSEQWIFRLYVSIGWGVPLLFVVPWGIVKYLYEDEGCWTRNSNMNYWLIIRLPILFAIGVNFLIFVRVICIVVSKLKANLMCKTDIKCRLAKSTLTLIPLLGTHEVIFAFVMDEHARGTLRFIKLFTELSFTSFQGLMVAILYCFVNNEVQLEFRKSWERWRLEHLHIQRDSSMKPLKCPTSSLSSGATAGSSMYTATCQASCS
Kind of assay: In vitro cell activity, cAMP production in HEK293 cells expressing GLP-1R. The settings on record: HEK293-GLP-1R cells, cAMP; read-out: GLP-1R (EC50). Summed up:
(§1)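 Assay format: cells at 4×10^5 cells/mL, cAMP sensed by d2/cryptate FRET pair, dual-wavelength read at 665 and 620 nm. Potency expressed as EC50 from nonlinear fitting.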

The next assay deals with T3, GCGR (Homo sapiens, UniProt P47871).
T3 construct: expressed in transfected cells; host or cells: HEK293 (HEK293-GCGR)
T3 sequence (P47871 26-477, species assumed): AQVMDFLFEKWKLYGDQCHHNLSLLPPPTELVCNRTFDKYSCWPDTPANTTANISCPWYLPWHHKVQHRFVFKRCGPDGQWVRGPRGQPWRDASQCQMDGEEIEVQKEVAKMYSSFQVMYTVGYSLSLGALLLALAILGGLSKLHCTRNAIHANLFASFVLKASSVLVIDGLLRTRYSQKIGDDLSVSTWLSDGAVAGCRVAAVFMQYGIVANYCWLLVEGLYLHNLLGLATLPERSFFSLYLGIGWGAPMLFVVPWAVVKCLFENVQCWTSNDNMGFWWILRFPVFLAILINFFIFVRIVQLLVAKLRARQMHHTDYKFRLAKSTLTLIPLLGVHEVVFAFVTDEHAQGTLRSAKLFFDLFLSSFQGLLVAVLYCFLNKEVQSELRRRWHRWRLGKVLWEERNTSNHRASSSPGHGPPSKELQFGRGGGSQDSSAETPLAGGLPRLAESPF
In words: In vitro cell activity, cAMP production in HEK293 cells expressing GCGR. The following applies: HEK293-GCGR cells, cAMP; read-out: GCGR (EC50). Summed up: as §1

Each structure is given as a SMILES string.

In the case of `CC[C@H](C)[C@H](NC(=O)[C@H](Cc1ccccc1)NC(=O)[C@H](CCC(=O)O)NC(=O)[C@H](CCCNC(=N)N)NC(=O)[C@H](C)NC(=O)[C@H](CCCNC(=N)N)NC(=O)[C@H](CCCCNC(=O)COCCOCCNC(=O)CC[C@H](NC(=O)CCCCCCCCCCCCCCCCCCC(=O)O)C(=O)O)NC(=O)[C@H](CCC(=O)O)NC(=O)[C@H](CC(=O)O)NC(=O)[C@H](CC(C)C)NC(=O)[C@H](CC(C)C)NC(=O)[C@@H](NC(=O)[C@H](CO)NC(=O)[C@H](Cc1ccc(O)cc1)NC(=O)[C@H](CC(=O)O)NC(=O)[C@H](CO)NC(=O)[C@@H](NC(=O)[C@](C)(Cc1ccccc1F)NC(=O)[C@@H](NC(=O)CNC(=O)[C@H](Cc1c[nH]cn1)NC(=O)C(C)(C)NC(=O)[C@@H](N)Cc1ccc(O)cc1)[C@@H](C)O)[C@@H](C)O)[C@@H](C)CC)C(=O)N[C@@H](CCC(=O)O)C(=O)N[C@@H](Cc1c[nH]c2ccccc12)C(=O)N[C@@H](CC(C)C)C(=O)N[C@@H](CC(C)C)C(=O)N[C@@H](CCC(=O)O)C(=O)NCC(=O)NCC(=O)N1CCC[C@H]1C(=O)N[C@@H](CO)C(=O)N[C@@H](CO)C(=O)NCC(=O)N[C@@H](C)C(=O)N1CCC[C@H]1C(=O)N1CCC[C@H]1C(=O)N1CCC[C@H]1C(=O)N[C@@H](CO)C(=O)O` [HEC-PT89], the values for the EC50 on GIPR, at GLP-1R and on GCGR were 0.214 nM, 0.172 nM and 0.0419 nM, respectively.
The corresponding values for `CC[C@H](C)[C@H](NC(=O)[C@H](Cc1ccccc1)NC(=O)[C@H](C)NC(=O)[C@H](CCCCN)NC(=O)[C@H](CCC(N)=O)NC(=O)[C@H](CCCCN)NC(=O)[C@H](CCCCNC(=O)COCCOCCNC(=O)CC[C@H](NC(=O)CCCCCCCCCCCCCCCCCCC(=O)O)C(=O)O)NC(=O)[C@H](CCC(=O)O)NC(=O)[C@H](CC(=O)O)NC(=O)[C@H](CC(C)C)NC(=O)[C@H](CC(C)C)NC(=O)[C@@H](NC(=O)[C@H](CO)NC(=O)[C@H](Cc1ccc(O)cc1)NC(=O)[C@H](CC(=O)O)NC(=O)[C@H](CO)NC(=O)[C@@H](NC(=O)[C@](C)(Cc1ccccc1F)NC(=O)[C@@H](NC(=O)CNC(=O)[C@H](CCC(N)=O)NC(=O)C(C)(C)NC(=O)[C@@H](N)Cc1ccc(O)cc1)[C@@H](C)O)[C@@H](C)O)[C@@H](C)CC)C(=O)N[C@@H](CCC(=O)O)C(=O)N[C@@H](Cc1ccc(O)cc1)C(=O)N[C@@H](CC(C)C)C(=O)N[C@@H](CC(C)C)C(=O)N[C@@H](C)C(=O)NCC(=O)NCC(=O)N1CCC[C@H]1C(=O)N[C@@H](CO)C(=O)N[C@@H](CO)C(=O)NCC(=O)N[C@@H](C)C(=O)N1CCC[C@H]1C(=O)N1CCC[C@H]1C(=O)N1CCC[C@H]1C(=O)N[C@@H](CO)C(N)=O` [HEC-PT131] are 1.13 nM, 0.249 nM and 8.07 nM.
With `CC[C@H](C)[C@H](NC(=O)[C@H](Cc1ccccc1)NC(=O)[C@H](C)NC(=O)[C@H](CCC(N)=O)NC(=O)[C@H](CCC(N)=O)NC(=O)[C@H](C)NC(=O)[C@H](CCCCNC(=O)COCCOCCNC(=O)CC[C@H](NC(=O)CCCCCCCCCCCCCCCCCCC(=O)O)C(=O)O)NC(=O)[C@H](CCC(=O)O)NC(=O)[C@H](CC(=O)O)NC(=O)[C@H](CC(C)C)NC(=O)[C@H](CC(C)C)NC(=O)[C@@H](NC(=O)[C@H](CO)NC(=O)[C@H](Cc1ccc(O)cc1)NC(=O)[C@H](CC(=O)O)NC(=O)[C@H](CO)NC(=O)[C@@H](NC(=O)[C@](C)(Cc1ccccc1F)NC(=O)[C@@H](NC(=O)CNC(=O)[C@H](Cc1c[nH]cn1)NC(=O)C(C)(C)NC(=O)[C@@H](N)Cc1ccc(O)cc1)[C@@H](C)O)[C@@H](C)O)[C@@H](C)CC)C(=O)N[C@@H](CCC(=O)O)C(=O)N[C@@H](Cc1ccc(O)cc1)C(=O)N[C@@H](CC(C)C)C(=O)N[C@@H](CC(C)C)C(=O)N[C@@H](C)C(=O)NCC(=O)NCC(=O)N1CCC[C@H]1C(=O)N[C@@H](CO)C(=O)N[C@@H](CO)C(=O)NCC(=O)N[C@@H](C)C(=O)N1CCC[C@H]1C(=O)N1CCC[C@H]1C(=O)N1CCC[C@H]1C(=O)N[C@@H](CO)C(=O)O` [HEC-PT81], the EC50 on GIPR amounted to 0.132 nM; at GLP-1R, 0.409 nM; on GCGR, 0.382 nM.
